Experimental data published in patent publication US4046879A, “Antiviral compositions” (priority 1975, dated 1977).

Experiments:
[1] = system: rhinovirus-ribonucleic acid; assay: Role of the hydrolyzable β-γ-oxygen-bridge in autocatalytic degradation of rhinovirus RNA; type: biochemical
Text: 3. The essential role of the hydrolyzable β-γ-oxygen-bridge in the nucleoside triphosphate for the autocatalytic degradation of the rhinovirus-ribonucleic acid was shown by: […]

[2] = system: radioactive-labeled rhinovirus ribonucleic acid; assay: Synergism test: inducible decomposition of P32-labeled rhinovirus RNA; type: biochemical; conditions: 30 minutes, pH 7.6, 36° C.
Method: 6. The synergistic effect of the complexing agent (e.g. sodium pyrophosphate) and phosphorylating agent (e.g. adenosine triphosphate) was shown by means of the inducible decomposition of radioactive-labeled rhinovirus ribonucleic acid: Aliquotes (10^6 plaque-forming units) of purified rhinoviruses, the ribonucleic acid of which had been labeled with phosphorus-32, were incubated for 30 minutes with 5 n moles of adenosine triphosphate, either separately or with increasing quantities of sodium pyrophosphate at a pH-value of 7.6 and 36° C. As control values sodium pyrophosphate was used in various concentrations without adenosine triphosphate.

Nc1ncnc2c1ncn2[C@@H]1O[C@H](COP(=O)(O)OP(=O)(O)NP(=O)(O)O)[C@@H](O)[C@H]1O [Adenosine-imido-diphosphate]
initiating the autocatalytic inactivation of the rhinoviruses [1]: completely ineffective

Nc1ncnc2c1ncn2[C@@H]1O[C@H](COP(=O)(O)OP(=O)(O)OP(=O)(O)O)[C@@H](O)[C@H]1O [Adenosine triphosphate, adenosine triphosphate]
removal of P^32-labeled γ-phosphate during the reaction with rhinovirus ([1]; Mg^++ -ion free medium): formation of adenosine diphosphate and rhinovirus-bonded P^32 | % degradation of the viral ribonucleic acid ([2]; adenosine triphosphate 5 n moles, sodium pyrophosphate 0): < 7.5%

O=P([O-])([O-])OP(=O)([O-])[O-].[Na+].[Na+].[Na+].[Na+] [Sodium pyrophosphate, sodium pyrophosphate]
% degradation of the viral ribonucleic acid ([2]; adenosine triphosphate 0, sodium pyrophosphate 50 n moles): < 10% | % degradation of the viral ribonucleic acid ([2]; adenosine triphosphate 0, sodium pyrophosphate 250 n moles): < 10% | % degradation of the viral ribonucleic acid ([2]; adenosine triphosphate 0, sodium pyrophosphate 500 n moles): < 10%

Nc1ncnc2c1ncn2[C@@H]1O[C@H](COP(=O)(O)OP(=O)(O)O)[C@@H](O)[C@H]1O [adenosine diphosphate]
induction of the autocatalytic RNA-degradation [1]: Inactivity
